Ends that are not written are not given here.
Tests used:
[1] = tested on: P. acnes (erythromycin sensitive); test: MIC on Propionebacterium acnes, erythromycin sensitive strain; format: cell-based
Method: (§1) Minimal Inhibitory Concentration (MIC) of Novispirin G10 (SEQ ID NO: 16) was evaluated against P. acnes. Two strains were tested—one of which is clinically resistant to clindamycin and erythromycin.

[2] = tested on: P. acnes (erythromycin resistant); test: MIC on Propionebacterium acnes, erythromycin resistant strain; format: cell-based; settings: clinically resistant to clindamycin and erythromycin
Method: as §1

[3] = tested on: Staphylococcus aureus (ATCC 25923); test: Staphylococcus aureus wound infection in pigs (wound chambers, 4 hour time course); format: in vivo, Göttinger minipigs; settings: 100 micrograms/ml, 1 ml applied
Method: The bacterial strain, Staphylococcus aureus, used in the study was ATCC 25923. The amino acid sequence of Novispirin G10 is shown in SEQ ID NO: 16.
Novispirin G10 was diluted in 0.01% acetic acid containing 0.1% BSA with a final concentration of 1 mg (substrate)/ml (solution); 100 micrograms/ml; 10 micrograms/ml and 1 microgram/ml. The carrier control was 0.01% acetic acid containing 0.1% BSA. As a positive control was used Synthetic Protegrin 1 (Charité, Institut f. Biochemie d. Humboldt Universität Berlin) diluted in 0.01% acetic acid containing 0.1% BSA with a final concentration of 100 micrograms/ml.
The chambers are made of one piece of titanium, have a screw top cover (also made of titanium) and were built in teamwork with Cranio Construct Bochum. The chambers have a height of 14 mm, an inner diameter of 25 mm and an outer diameter of 32 mm without baseplate (with baseplate: 50 mm).
After providing permission to conduct experiments with vertebrates in compliance with German animal protection laws, Göttinger minipigs (Fa. Ellegaard, Dalmose, Denmark; female, 6 months old, 25-30 kg weight) were chosen to implant the chambers on. The pigs were kept at least 2 weeks in the stable, fed a standard porcine diet and housed at 20° C. to 30° C. in an atmosphere of approximately 65% humidity with a light cycle of 12 hours on and 12 hours off. The animals used for this study appeared, during the experiments, clinically healthy—rectal temperature and body weight remained normal over the observed period.
Before wounding the skin was surgically prepared, washed with soap and disinfected with Octenisept (S&M, Norderstedt, Germany) for five minutes. Twelve BO-Chambers were implanted on the pigs back and flank between the base of the scapula and the iliac crest. The wounds were spaced a minimum of 5 cm apart and were created in four rows parallel to the columna vertebralis, two rows on each side of the columna vertebrtalis. The exact size and shape of the wounds were ensured by a special custom-made “round-scalpel” (also built in teamwork with Cranio Construct Bochum), which has a diameter of 33 mm. Epidermal, dermal subcutaneous tissues were removed, possible bleedings stanched by bipolar diathermy. The chambers were placed with an additionally secant v-incision at positions 6 respectively 12 o'clock on the musculus thoracicus longus fascia and the muscle fascia of the external ripcage muscles. The incisions were sutured with 2/0 Monocryl followed by the closure of the chambers. Povidone-iodine salve (Betaisodonna-salve, Mundipharma, Austria) was smothered on the wound edges. The chambers were dressed with paraffin gauze (Jelonet, Smith & Nephew, Lohfelden, Germany) and sterile compresses. Dressings were changed every second day under sedation (as described above).
Bacterial Background of each chamber was measured every second day, to detect potential contamination. Only one contaminated chamber was detected. Seven days post operation ten chambers were inoculated with bacteria.
For bacteria progeny Staphylococcus aureus (ATCC 25923) was plated on LB-Agar plate and incubated at 37° C. for 18 hours. One colony was picked and transfered into 3 ml LB-Medium for over night culture at 37° C. at 300 rpm. Over night culture was diluted in 50 ml fresh LB-Medium and incubated for 2.5 hours at 37° C. at 200 rpm.
Bacteria were pelleted, 4000 rpm, 5 min, Mergafuge 1.0 R (Heraeus, Hanau, Germany), and resuspended in PBS. Amount of containg bacteria was detremined by OD600 nm-measurement and calculated as follows: Colony forming Unit/ml=OD600 nm×2.5×10^8 (bacteria)
To inoculate one chamber 5×10^8 were used.
The establishment of the infection was proven by the measurement of bacterial counts per chamber. All inoculated chambers were infected after two days. Chamber No. 2 keeps bacteria free.
At day four after infection the antimicrobial effect of the testing substrate was measured in a time course of 4 hours in duration. […]

Row | Molecule | Minimal Inhibitory Concentration (MIC) [1] | Minimal Inhibitory Concentration (MIC) [2] | Mean CFU per ml sample volume (chamber fluid) ([3]; 0 hours) | Mean CFU per ml sample volume (chamber fluid) ([3]; 1 hour) | Mean CFU per ml sample volume (chamber fluid) ([3]; 2 hours) | Mean CFU per ml sample volume (chamber fluid) ([3]; 3 hours) | Mean CFU per ml sample volume (chamber fluid) ([3]; 4 hours)
1 | CCC[C@@H]1C[C@@H](C(=O)N[C@@H]([C@H]2O[C@H](SC)[C@H](O)[C@@H](O)[C@H]2O)[C@H](C)Cl)N(C)C1 [Clindamycin] | 0.12 | 64 | – | – | – | – | –
2 | CC[C@H]1OC(=O)[C@H](C)[C@@H](O[C@H]2C[C@@](C)(OC)[C@@H](O)[C@H](C)O2)[C@H](C)[C@@H](O[C@@H]2O[C@H](C)C[C@H](N(C)C)[C@H]2O)[C@](C)(O)C[C@@H](C)C(=O)[C@H](C)[C@@H](O)[C@]1(C)O [Erythromycin] | 0.25 | 64 | – | – | – | – | –
3 | Protegrin 1: Synthetic Protegrin 1 (Charité, Humboldt Universität Berlin), used as a positive control at 100 micrograms/ml (RGGRLCYCRRRFCVCVGR; ends and bridges not checked; cysteine pairing not given here; UniProt P32194 131-148, looked up) [reference compound] | – | – | 13200000 CFU/ml | 88667 CFU/ml | 12800 CFU/ml | 3525 CFU/ml | 129000 CFU/ml

From patent US20050245452A1, “Pharmaceutical use of novispirins” (Novozymes A/S, priority 2004, published 2005)
